Consider one compound from publication PMC6264278, “Corydaline Inhibits Multiple Cytochrome P450 and UDP-Glucuronosyltransferase Enzyme Activities in Human Liver Microsomes” (Molecules, 2011).

Format in all cases: in vitro ADME
Series [1] has as its system CYP3A. In words: Time- and concentration-dependent inactivation of CYP3A-mediated midazolam hydroxylation in human liver microsomes. The following applies: probe midazolam (1'-hydroxylation), estimated from kobs vs corydaline concentration (10-150 μM). As for the experimental part:
The inhibitory effects of corydaline toward seven major human CYP isoforms and four major human UGT isoforms were evaluated using cocktail CYP probe substrates and each UGT probe substrate in human liver microsomes, respectively. […] To determine whether midazolam metabolism is inhibited by corydaline, we performed time- and concentration-dependent inactivation assays in human liver microsomes. […] Values for kobs were plotted against corydaline concentration and used for estimation of maximal rates (kinact) and Ki values in human liver microsomes (Figure 2b).

The target of a further series is T1, CYP2A6 (Homo sapiens, UniProt P11509).
T1 construct: using pooled human liver microsomes; tissue BD Gentest Co. H161; host or cells: pooled human liver microsomes
T1 sequence (P11509 1-494): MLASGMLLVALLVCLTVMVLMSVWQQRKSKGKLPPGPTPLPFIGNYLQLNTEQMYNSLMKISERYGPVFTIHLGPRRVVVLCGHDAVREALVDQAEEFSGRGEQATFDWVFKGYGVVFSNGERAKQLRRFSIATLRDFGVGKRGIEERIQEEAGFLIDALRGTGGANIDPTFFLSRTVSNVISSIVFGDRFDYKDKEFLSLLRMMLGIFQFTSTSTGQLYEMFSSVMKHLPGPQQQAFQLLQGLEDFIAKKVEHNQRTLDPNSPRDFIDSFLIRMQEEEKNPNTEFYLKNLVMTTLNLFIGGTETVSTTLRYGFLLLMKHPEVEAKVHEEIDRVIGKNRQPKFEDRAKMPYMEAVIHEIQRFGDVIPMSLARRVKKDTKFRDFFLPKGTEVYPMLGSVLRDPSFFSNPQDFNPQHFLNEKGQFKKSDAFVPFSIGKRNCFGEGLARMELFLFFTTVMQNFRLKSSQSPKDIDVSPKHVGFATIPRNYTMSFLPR
In words: CYP2A6 coumarin 7-hydroxylation inhibition, cocktail assay in pooled human liver microsomes. The following applies: 2.5 μM coumarin, no inhibition at 200 μM of corydaline; for IC50 no preincubation, CYP2A6 coumarin 7-hydroxylation: pooled human liver microsomes (H161). As for the experimental part:
(§1) Phenacetin O-deethylase, coumarin 7-hydroxylase, amodiaquine N-deethylase, diclofenac 4-hydroxylase, S-mephenytoin 4-hydroxylase, bufuralol hydroxylase, and midazolam 1’-hydroxylase activities were determined as probe activities for CYP1A2, CYP2A6, CYP2C8, CYP2C9, CYP2C19, CYP2D6, and CYP3A4, respectively, using cocktail incubation and liquid chromatography-tandem mass spectrometry (LC/MS/MS). The incubation mixtures were prepared in a total volume of 200 μL, as follows: pooled human liver microsomes (0.25 mg/mL), 1.3 mM NADPH, 3.3 mM MgCl2, 50 mM potassium phosphate buffer (pH 7.4), and a cocktail of probe substrates and various concentrations of corydaline (1−200 μM). The substrates were used at concentrations approximately equal to their respective Km values: 50 μM phenacetin, 2.5 μM coumarin, 2.5 μM amodiaquine, 10 μM diclofenac, 100 μM S-mephenytoin, 5 μM bufuralol, and 2.5 μM midazolam. After a 3-min pre-incubation period at 37 °C, the reactions were initiated by addition of an NADP generating system and incubated for 20 min at 37 °C in a shaking water bath. After incubation, the reaction was stopped by placement of the tubes on ice and addition of 100 μL of ice-cold methanol containing internal standards (^13C2,^15N-acetaminophen for acetaminophen and N-desethylamodiaquine, d5-7-hydroxycoumarin for 7-hydroxycoumarin, ^13C6-4-hydroxydiclofenac for 4-hydroxydiclofenac, d3-4-hydroxy-mephenytoin for 4-hydroxymephenytoin and hydroxymidazolam, d9-1-hydroxybufuralol for 1-hydroxybufuralol). The incubation mixtures were then centrifuged at 13,000 × g for 5 min. All incubations were performed in triplicate and the mean values were used. […] The reaction was started by addition of a cocktail of CYP probe substrates.
(§2) All 7 metabolites produced from the cocktail of CYP isoform-specific substrates were simultaneously determined by LC/MS/MS [25]. […] Quantification was performed by selected reaction monitoring (SRM) of the [M+H]^+ ion and the related product ion for each metabolite. […]
(Liver microsomes are vesicles of endoplasmic reticulum, rich in cytochrome P450 enzymes.)

Series [2] concerns the target T2, CYP3A (Homo sapiens, UniProt P08684).
T2 construct: using pooled human liver microsomes; tissue BD Gentest Co. H161; host or cells: pooled human liver microsomes
In words: CYP3A midazolam 1'-hydroxylation inhibition, cocktail assay in pooled human liver microsomes. The following applies: 2.5 μM midazolam. As for the experimental part:
as §1, §2

SMILES strings stand for the structures. Read-outs that look alike come from different tables or passages of the source.

In general, kinact refers to the rate constant of inactivation at saturating inhibitor. Usually IC50 stands for the concentration that gives 50% inhibition.

T2 sequence (P08684 2-503): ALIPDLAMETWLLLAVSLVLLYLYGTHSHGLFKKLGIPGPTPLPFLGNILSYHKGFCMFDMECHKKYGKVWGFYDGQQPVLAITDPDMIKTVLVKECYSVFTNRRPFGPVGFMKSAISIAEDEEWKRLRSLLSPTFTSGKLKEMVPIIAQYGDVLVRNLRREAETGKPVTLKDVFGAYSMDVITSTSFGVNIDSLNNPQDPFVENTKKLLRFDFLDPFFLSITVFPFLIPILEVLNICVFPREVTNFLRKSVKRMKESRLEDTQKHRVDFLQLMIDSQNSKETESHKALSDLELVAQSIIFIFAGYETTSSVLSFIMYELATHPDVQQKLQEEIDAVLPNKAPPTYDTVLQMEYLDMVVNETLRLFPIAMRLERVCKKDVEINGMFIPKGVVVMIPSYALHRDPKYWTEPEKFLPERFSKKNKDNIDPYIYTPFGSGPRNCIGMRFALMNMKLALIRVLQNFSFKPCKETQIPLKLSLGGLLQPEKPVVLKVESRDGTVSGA

In the case of `COc1cc2c(cc1OC)C1C(C)c3ccc(OC)c(OC)c3CN1CC2` (centres unmarked) [Corydaline, 2,3,9,10-tetramethoxy-13-methyl-5,8,13,13a-tetrahydro-6H-isoquino[3,2-a]isoquinoline], the KI (inactivation) in the series with CYP3A [1] (read-out: apparent Ki of inactivation, CYP3A midazolam hydroxylation) was 30 µM. Also, the kinact in the series with CYP3A [1] (read-out: maximal rate of inactivation (kinact), CYP3A midazolam hydroxylation (converted)) is 0.00107 s⁻¹. Also, the entries for the “IC50 no preincubation, CYP2A6 coumarin 7-hydroxylation” value at CYP2A6 and against CYP2A6 (listed as corydaline) were “negligible inhibition” and “No inhibition **”, respectively. For the same compound, the “IC50 with preincubation, CYP2A6 coumarin 7-hydroxylation” value at CYP2A6 (pre-incubated 30 min with NADPH) is listed as “No inhibition **”. Also, at CYP3A [2] (pooled human liver microsomes (H161)), the “IC50 no preincubation, CYP3A midazolam 1'-hydroxylation” value is on record as “negligible inhibition”. Besides, the IC50 on CYP3A [2] (pooled human liver microsomes (H161), read-out: IC50 no preincubation, CYP3A midazolam 1'-hydroxylation) is more than 200 µM; on CYP3A [2] (pre-incubated 30 min with NADPH, mean ± SD, n = 3, read-out: IC50 with preincubation, CYP3A midazolam 1'-hydroxylation), 67.4 ± 9.8 µM.
